Calls of active or inactive are those of the source.
Key:
[1] = molecular target: Peroxisome proliferator-activated receptor gamma/Nuclear receptor coactivator 3 (Homo sapiens, UniProt P37231); assay type: functional;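 further: agonist potency for raising coactivator recruitment to the receptor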
[2] = molecular target: Peroxisome proliferator-activated receptor gamma/Nuclear receptor coactivator 2 (Homo sapiens, UniProt P37231); assay type: functional;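 further: agonist potency for raising coactivator recruitment to the receptor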
[3] = molecular target: Peroxisome proliferator-activated receptor gamma/Nuclear receptor coactivator 1 (Homo sapiens, UniProt P37231); assay type: functional;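 further: agonist potency as compounds enhance coactivator SRC-1 recruitment to PPARgamma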
[4] = molecular target: Eukaryotic translation initiation factor 4H (Homo sapiens, UniProt Q15056); assay: human eIF4H binding inhibitors, primary screen, translation initiation inhibitor project, biochemical, uHTS, fluorescence polarization (AID 2012)
[5] = molecular target: Polyadenylate-binding protein 1 (Homo sapiens, UniProt P11940); assay: PABP poly(A) RNA binding inhibitors, primary screen, biochemical, fluorescence polarization, uHTS (AID 2014)
Estrogen receptor = molecular target: T1, Estrogen receptor (Homo sapiens, UniProt P03372); assay: ERα–SRC-3 coactivator interaction inhibitors, confirmation, orthogonal assay, biochemical, ELISA, streptavidin-HRP readout (AID 1079)
T1 sequence (P03372 whole entry): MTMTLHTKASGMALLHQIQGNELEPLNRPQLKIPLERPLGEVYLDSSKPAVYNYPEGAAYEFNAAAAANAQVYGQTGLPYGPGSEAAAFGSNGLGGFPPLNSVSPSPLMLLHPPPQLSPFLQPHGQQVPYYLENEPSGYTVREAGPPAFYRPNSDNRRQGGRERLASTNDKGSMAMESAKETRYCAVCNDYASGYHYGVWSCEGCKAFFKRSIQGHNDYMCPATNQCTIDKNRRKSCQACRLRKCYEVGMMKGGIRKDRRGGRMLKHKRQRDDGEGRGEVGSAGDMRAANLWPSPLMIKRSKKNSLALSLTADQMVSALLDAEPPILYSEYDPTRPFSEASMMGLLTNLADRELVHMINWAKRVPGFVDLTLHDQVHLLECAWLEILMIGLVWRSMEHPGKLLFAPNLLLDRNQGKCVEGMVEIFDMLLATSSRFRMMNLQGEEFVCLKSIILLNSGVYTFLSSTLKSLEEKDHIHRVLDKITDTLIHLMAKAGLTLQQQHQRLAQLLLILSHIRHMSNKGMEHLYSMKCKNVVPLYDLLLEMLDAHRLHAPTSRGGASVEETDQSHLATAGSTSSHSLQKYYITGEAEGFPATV

[6] = inhibitors of Bluetongue virus cytopathic effect, confirmation, arbovirus, BSR cells (AID 1250); assay type: functional;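 further: protection from viral cytopathic effect measured as cell viability by ATP luminescence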
[7] = cytotoxicity toward NIH3T3 fibroblasts, dose response, counter-screen, cell-based, ATP luminescence, mouse fibroblasts (AID 2010); assay type: functional;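 further: cells exposed to compound for about 90 hours before reading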
[8] = molecular target: Sphingosine 1-phosphate receptor 1 (Homo sapiens, UniProt P21453); assay type: functional;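 further: Tango beta-arrestin reporter U2OS cells stimulated with S1P near its EC80; inhibitor potency meaning antagonism of receptor activation by the natural agonist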
[9] = Fluorescence-based cell-based high throughput dose response assay for inhibitors of the interaction of nucleotide-binding oligomerization domain containing 2 (NOD2) and the receptor-interacting serine-threonine kinase 2 (RIPK2).; assay type: functional; details: Homo sapiens
[10] = molecular target: T2, Sphingosine 1-phosphate receptor 4 (Homo sapiens, UniProt O95977); assay: Fluorescence dose response cell-based high throughput screening assay for antagonists of the Sphingosine 1-Phosphate Receptor 4 (S1P4). [Related pubchem assays: 1524 (Confirmation in triplicates.), 1510 (Primary screen.)]; assay type: functional
T2 sequence (O95977 whole entry): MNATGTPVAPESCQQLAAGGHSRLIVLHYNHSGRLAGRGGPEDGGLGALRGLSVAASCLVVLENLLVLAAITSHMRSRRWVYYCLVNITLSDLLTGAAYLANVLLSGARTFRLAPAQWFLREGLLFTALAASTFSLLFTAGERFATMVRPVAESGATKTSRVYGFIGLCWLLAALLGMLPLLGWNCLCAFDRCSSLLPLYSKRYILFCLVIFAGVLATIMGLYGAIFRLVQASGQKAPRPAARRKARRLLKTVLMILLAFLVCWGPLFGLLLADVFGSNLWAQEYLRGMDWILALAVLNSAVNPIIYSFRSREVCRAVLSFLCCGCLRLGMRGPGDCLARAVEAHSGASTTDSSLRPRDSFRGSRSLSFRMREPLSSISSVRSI

[11] = inhibitors of intracellular T. cruzi replication, confirmation, NIH3T3 host cells, beta-gal luminescence (AID 2044); assay type: functional, cell-based;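 further: intracellular parasites grown in NIH/3T3 mouse fibroblasts as host cells; luminescent beta-galactosidase reporter signal from transgenic T. cruzi replicating inside host cells; inhibitors lower the luminescence signal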
[12] = inhibitors of PGC1a acetylation in cells, dose response, cell-based, cherry-picked samples (AID 720514); assay type: functional;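 further: potency may reflect raised or lowered acetylation signal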
[13] = molecular target: T3, Microphthalmia-associated transcription factor (Homo sapiens, UniProt O75030); assay: TRPM1 promoter luciferase signal decrease, dose response, MITF inhibitor project, cell-based, SK-MEL-5, cherry-picked, set 3 (AID 493073); assay type: functional
T3 sequence (O75030 whole entry): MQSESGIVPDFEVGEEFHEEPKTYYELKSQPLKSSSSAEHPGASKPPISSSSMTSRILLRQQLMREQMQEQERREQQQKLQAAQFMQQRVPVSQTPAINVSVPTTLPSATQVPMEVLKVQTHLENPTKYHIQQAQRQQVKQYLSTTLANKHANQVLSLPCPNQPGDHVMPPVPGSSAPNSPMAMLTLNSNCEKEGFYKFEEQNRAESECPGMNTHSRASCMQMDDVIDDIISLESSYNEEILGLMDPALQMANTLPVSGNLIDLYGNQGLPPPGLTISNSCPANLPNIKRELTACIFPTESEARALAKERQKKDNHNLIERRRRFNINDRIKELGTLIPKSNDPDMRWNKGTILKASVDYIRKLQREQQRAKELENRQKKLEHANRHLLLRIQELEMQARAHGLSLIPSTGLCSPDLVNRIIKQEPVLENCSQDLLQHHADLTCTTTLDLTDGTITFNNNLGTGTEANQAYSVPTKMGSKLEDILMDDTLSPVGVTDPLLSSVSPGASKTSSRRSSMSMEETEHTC

Cytochrome P450 2D6 = Cytochrome P450 2D6 (Homo sapiens, UniProt P10635); assay: qHTS Assay for Inhibitors and Substrates of Cytochrome P450 2D6. [Related pubchem assays: 410 ]; assay type: ADME; details: read-out: Potency
Cytochrome P450 3A4 = Cytochrome P450 3A4 (Homo sapiens, UniProt P08684); details: Potency;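 further: confirmatory qHTS run detecting inhibitors and substrates of CYP3A4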
Cytochrome P450 1A2 = molecular target: T4, Cytochrome P450 1A2 (Homo sapiens, UniProt P05177);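 further: PubChem cytochrome P450 panel assay, CYP1A2 panel member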
T4 sequence (P05177 whole entry): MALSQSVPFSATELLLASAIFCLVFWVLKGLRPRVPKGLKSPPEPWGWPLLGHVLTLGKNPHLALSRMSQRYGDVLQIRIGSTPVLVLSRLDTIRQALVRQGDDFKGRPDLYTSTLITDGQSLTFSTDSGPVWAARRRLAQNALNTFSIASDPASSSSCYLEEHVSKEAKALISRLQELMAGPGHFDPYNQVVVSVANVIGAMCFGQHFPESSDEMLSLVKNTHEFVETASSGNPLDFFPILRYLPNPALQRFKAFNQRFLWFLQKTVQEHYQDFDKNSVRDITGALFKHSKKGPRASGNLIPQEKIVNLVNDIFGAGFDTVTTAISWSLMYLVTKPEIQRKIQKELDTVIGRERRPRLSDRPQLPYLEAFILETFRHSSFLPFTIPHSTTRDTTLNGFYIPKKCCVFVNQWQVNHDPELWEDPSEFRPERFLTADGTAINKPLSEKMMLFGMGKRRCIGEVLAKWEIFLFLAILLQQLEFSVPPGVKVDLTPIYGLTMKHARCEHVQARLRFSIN

Cytochrome P450 2C19 = Cytochrome P450 2C19 (Homo sapiens, UniProt P33261); assay: Cytochrome panel assay with activity outcomes. Panel member name: p450-cyp2c19 Compounds with AC50 equal or less than 10 uM are considered active; assay type: functional; details: read-out: AC50
[14] = molecular target: T5, Mannose-6-phosphate isomerase (Homo sapiens, UniProt P34949); assay: human PMI inhibitors, high substrate, primary screen, biochemical, fluorescence intensity, high mannose 6-phosphate (AID 1220)
T5 sequence (P34949 whole entry): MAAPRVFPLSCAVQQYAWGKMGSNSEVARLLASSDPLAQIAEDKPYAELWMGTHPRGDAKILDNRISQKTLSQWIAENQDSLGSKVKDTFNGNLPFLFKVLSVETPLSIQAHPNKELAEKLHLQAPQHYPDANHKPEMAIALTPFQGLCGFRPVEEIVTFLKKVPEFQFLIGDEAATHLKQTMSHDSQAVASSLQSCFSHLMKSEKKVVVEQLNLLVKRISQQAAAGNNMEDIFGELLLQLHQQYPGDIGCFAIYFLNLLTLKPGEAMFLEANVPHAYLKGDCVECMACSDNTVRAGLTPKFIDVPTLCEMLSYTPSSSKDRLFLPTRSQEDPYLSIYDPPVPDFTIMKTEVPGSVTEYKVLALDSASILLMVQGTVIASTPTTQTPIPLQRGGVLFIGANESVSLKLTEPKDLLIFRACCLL

INS1 = assay: beta cell apoptosis inhibitors, cytokine rescue, dose response, luminescence, retest (AID 449756); assay type: functional, cell-based; details: Rattus norvegicus;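 further: cell death triggered by IL-1 beta plus TNF-alpha plus IFN-gamma mixture; protective hits raise ATP signal compared with cytokine alone wells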
Large T antigen = Large T antigen (Simian virus 40, UniProt P03070); assay type: functional, Betapolyomavirus macacae;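 further: Confirmatory-stage PubChem screen for compounds that inhibit SV40 T antigen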
[15] = molecular target: T6, Histone-lysine N-methyltransferase NSD2 (Homo sapiens, UniProt O96028); assay type: biochemical
T6 sequence (O96028 whole entry): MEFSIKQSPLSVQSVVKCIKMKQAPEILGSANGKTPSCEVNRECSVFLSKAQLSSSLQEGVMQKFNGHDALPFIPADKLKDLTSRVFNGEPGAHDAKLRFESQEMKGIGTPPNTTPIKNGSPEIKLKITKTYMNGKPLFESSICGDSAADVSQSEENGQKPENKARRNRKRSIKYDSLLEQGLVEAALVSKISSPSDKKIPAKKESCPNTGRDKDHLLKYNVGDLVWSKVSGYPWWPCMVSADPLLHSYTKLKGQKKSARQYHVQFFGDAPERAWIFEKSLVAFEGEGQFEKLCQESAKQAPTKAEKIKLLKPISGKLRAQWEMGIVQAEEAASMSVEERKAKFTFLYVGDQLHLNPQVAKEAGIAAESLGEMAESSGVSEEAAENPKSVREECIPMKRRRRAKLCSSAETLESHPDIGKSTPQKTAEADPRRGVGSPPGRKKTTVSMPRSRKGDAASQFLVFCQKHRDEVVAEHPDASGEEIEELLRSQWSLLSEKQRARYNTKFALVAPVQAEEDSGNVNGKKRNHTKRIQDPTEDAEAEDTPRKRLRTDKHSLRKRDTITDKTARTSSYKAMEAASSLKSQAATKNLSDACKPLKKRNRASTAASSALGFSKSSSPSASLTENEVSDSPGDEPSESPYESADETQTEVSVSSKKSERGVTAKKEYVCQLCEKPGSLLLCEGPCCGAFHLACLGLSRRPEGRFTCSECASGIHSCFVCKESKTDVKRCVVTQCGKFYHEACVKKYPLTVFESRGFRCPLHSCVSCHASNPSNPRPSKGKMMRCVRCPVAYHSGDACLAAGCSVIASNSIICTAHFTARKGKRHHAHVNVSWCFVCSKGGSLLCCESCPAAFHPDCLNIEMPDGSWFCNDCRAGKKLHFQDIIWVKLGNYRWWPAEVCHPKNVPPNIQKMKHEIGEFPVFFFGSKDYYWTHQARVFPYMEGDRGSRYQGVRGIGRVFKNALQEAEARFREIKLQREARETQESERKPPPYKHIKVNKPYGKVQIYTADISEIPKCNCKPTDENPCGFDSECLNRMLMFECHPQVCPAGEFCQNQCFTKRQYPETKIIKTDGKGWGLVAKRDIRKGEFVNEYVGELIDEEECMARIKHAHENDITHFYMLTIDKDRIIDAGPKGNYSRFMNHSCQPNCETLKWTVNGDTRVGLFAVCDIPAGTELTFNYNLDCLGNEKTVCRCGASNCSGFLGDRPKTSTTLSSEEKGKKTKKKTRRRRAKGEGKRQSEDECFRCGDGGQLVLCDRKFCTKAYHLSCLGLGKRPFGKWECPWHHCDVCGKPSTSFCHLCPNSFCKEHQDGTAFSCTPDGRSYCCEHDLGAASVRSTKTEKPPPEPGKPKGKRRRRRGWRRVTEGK

cells [16] = assay type: functional, cell-based
Nonstructural protein 1 = Nonstructural protein 1 (Influenza A virus, UniProt Q194T2); assay type: functional, Influenza A virus (A/California/07/2009(H1N1))
cells [17] = assay type: functional, cell-based; remark: listed apart in the source
[18] = enhancers of respiration in Yfh1-depleted yeast, dose response, Friedreich's ataxia, plus single-dose screen (AID 1465); assay type: functional;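 further: yeast depleted of Yfh1p frataxin homolog grown on glycerol needing respiration; WST-1 tetrazolium dye reduction as measure of cellular dehydrogenase metabolic activity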

Chain of Cytochrome P450 3A4 (P08684 whole entry): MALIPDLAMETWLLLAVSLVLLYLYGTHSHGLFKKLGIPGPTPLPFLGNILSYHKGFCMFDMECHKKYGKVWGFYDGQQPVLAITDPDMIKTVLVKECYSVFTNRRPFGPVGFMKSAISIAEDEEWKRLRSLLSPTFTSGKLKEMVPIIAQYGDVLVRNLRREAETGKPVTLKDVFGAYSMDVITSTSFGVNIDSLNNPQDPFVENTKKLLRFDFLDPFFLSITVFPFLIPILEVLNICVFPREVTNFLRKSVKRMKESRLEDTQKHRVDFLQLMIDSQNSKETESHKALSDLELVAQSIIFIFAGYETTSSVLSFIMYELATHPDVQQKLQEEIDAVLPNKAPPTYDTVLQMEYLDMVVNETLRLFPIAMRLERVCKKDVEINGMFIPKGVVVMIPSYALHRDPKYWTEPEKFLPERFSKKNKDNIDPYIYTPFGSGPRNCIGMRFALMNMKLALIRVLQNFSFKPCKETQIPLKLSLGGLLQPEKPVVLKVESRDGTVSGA
Chain of Cytochrome P450 2D6 (P10635 whole entry): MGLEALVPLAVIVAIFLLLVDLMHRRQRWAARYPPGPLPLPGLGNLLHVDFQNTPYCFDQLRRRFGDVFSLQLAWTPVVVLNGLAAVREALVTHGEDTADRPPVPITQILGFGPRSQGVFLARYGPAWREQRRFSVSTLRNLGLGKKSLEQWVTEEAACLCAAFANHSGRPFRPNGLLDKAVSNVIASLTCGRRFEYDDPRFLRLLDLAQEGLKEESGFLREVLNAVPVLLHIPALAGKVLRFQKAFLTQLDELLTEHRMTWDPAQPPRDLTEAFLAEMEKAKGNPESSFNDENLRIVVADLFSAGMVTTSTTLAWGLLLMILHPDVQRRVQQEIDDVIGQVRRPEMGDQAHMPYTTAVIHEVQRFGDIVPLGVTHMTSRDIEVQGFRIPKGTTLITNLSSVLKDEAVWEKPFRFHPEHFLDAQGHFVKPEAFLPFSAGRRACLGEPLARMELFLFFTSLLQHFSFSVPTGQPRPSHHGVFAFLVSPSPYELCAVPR
Chain of Peroxisome proliferator-activated receptor gamma/Nuclear receptor coactivator 3 (P37231 whole entry): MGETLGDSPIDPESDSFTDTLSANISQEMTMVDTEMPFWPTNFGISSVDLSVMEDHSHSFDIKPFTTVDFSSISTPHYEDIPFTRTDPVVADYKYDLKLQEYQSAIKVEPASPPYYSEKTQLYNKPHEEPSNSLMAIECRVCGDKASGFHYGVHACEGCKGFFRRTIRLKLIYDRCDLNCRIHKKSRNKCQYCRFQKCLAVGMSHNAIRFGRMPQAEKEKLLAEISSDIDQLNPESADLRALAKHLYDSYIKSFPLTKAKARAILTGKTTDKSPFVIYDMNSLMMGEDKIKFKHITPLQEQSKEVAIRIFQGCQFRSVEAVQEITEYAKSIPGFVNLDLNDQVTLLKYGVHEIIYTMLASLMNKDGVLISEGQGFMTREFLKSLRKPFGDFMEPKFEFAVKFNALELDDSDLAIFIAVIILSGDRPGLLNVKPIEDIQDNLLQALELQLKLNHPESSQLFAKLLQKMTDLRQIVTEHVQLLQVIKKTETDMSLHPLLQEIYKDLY
Chain of Peroxisome proliferator-activated receptor gamma/Nuclear receptor coactivator 3 (Q9Y6Q9 whole entry, further chain): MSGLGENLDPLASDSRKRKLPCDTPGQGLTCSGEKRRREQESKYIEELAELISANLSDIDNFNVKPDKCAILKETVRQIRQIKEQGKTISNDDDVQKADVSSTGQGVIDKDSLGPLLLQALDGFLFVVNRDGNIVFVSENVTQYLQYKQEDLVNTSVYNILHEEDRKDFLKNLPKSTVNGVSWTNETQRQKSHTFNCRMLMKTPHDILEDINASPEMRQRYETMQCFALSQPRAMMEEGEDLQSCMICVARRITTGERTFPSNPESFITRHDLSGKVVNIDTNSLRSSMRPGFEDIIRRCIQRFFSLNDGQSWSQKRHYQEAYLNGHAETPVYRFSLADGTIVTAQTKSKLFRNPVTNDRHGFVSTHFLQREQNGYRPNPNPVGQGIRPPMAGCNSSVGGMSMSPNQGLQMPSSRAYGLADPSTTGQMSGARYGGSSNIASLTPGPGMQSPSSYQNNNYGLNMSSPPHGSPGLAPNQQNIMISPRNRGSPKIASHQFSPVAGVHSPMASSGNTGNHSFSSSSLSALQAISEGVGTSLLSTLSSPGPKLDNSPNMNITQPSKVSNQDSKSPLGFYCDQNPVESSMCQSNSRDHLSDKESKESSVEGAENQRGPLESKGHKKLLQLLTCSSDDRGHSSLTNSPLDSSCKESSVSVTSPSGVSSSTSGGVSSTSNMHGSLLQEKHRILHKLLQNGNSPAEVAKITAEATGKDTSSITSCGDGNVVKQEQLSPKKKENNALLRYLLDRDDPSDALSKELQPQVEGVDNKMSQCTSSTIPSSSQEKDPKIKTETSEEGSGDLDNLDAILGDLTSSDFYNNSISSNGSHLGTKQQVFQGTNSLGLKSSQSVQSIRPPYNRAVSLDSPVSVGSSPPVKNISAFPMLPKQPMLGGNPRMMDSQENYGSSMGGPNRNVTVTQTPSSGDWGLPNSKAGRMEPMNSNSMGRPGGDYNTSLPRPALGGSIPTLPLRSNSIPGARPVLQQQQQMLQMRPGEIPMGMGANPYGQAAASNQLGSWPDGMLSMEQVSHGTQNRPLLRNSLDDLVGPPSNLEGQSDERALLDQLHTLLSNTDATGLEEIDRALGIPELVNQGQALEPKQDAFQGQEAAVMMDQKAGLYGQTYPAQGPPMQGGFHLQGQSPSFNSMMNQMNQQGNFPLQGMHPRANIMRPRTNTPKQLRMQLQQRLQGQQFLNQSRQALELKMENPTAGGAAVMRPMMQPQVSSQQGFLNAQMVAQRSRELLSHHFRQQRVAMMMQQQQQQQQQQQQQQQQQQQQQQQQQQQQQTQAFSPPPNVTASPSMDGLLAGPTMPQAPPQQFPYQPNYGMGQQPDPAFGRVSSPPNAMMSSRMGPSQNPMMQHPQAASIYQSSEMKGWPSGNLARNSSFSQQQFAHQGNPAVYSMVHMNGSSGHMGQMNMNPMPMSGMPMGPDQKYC
Chain of Peroxisome proliferator-activated receptor gamma/Nuclear receptor coactivator 2 (P37231 whole entry): as the sequence (P37231 whole entry) above
Chain of Peroxisome proliferator-activated receptor gamma/Nuclear receptor coactivator 2 (Q15596 whole entry, further chain): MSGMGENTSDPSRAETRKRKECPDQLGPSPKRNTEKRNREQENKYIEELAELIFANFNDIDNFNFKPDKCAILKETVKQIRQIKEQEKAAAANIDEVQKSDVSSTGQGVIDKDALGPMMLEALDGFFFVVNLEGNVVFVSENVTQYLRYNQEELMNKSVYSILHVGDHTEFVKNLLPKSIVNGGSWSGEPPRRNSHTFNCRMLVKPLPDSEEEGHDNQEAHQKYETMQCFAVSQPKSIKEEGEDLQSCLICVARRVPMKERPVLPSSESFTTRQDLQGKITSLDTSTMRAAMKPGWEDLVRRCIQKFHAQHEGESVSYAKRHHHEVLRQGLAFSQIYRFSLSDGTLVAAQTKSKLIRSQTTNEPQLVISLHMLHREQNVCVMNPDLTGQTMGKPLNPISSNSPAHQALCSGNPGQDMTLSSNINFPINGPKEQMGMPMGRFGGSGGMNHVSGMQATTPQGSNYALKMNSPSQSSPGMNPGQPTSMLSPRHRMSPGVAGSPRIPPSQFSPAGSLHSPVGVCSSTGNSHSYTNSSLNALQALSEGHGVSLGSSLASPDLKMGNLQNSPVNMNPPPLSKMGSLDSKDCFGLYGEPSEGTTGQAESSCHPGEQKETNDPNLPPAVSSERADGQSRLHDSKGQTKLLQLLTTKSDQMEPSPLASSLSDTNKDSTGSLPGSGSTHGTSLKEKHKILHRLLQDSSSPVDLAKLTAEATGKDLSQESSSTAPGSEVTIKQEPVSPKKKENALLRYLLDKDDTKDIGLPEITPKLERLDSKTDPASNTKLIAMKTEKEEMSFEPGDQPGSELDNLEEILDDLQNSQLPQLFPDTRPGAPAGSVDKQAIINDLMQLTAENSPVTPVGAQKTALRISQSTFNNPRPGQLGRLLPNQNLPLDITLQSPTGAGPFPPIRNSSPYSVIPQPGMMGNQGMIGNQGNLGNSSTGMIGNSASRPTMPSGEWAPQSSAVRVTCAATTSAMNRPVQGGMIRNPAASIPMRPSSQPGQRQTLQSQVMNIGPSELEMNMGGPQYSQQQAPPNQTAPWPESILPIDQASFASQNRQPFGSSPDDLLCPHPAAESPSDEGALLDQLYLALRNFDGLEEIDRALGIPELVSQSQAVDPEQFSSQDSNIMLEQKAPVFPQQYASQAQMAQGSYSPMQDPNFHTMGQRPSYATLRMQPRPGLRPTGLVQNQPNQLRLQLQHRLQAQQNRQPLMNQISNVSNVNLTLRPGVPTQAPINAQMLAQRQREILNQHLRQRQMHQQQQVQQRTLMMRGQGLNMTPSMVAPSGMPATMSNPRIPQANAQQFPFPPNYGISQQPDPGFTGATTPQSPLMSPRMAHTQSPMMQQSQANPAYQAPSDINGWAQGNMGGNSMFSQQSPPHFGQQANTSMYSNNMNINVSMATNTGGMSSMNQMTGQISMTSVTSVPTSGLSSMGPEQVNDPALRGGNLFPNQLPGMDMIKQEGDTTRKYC

CCCNC(=O)C(CC)NS(=O)(=O)c1ccc(OC)cc1 (configuration not stated)
EC50 [1]: > 79.4 µM (not active)
EC50 [2]: > 79.4 µM (not active)
EC50 [3]: > 79.4 µM (not active)

CCC(c1nnc(SCCNCCO)n1CCN1CCOCC1)N(C)C (configuration not stated)
IC50 [4]: > 100 µM (inactive)
IC50 [5]: 7.33 µM (active)

O=C(CCCCCn1c(=S)[nH]c2ccccc2c1=O)N1CCC(O)(c2ccc(Cl)cc2)CC1
IC50 (Estrogen receptor): 80 nM (not active)

Cc1ccc2nc(NC(=O)C3=NN(c4ccccc4)C(=O)CC3)sc2c1
IC50 [6]: 29 µM (active)

O=C(CCCn1c(=S)[nH]c2ccccc2c1=O)N1CCN(c2cccc3ccccc23)CC1
IC50 (Estrogen receptor): 70 nM (not active)

O=C(Cn1ncc(Cl)c(Cl)c1=O)c1ccc(Cl)cc1
EC50 [7]: 2.41 µM (active)
IC50 [8]: 7.28 µM (active)
IC50 [9]: 1.84 µM (active)
IC50 [10]: 2.15 µM (active)
EC50 [11]: 2.11 µM (active)
AC50 [12]: 3.39 µM (active)
AC50 [13]: 8.81 µM (active)

CCCCCCC1=Cc2cc(OC)c(OC)cc2C(C(C(C)=O)C(=O)OCC)O1 (configuration not stated)
AC50 (Cytochrome P450 2D6): 6.31 µM (inconclusive)
AC50 (Cytochrome P450 3A4): 3.16 µM (inconclusive)

CCOC(=O)CC(=O)CSc1nc(-c2ccccc2)cc(-c2ccc(Cl)cc2)c1C#N
EC50 [1]: 18.7 µM (not active)
EC50 [2]: 14.8 µM (not active)
EC50 [3]: 16.4 µM (not active)
AC50 (Cytochrome P450 1A2): 2.24 µM (inconclusive)
AC50 (Cytochrome P450 2C19): 7.08 µM (inconclusive)

Oc1cccc(/C=N/NC(=S)Nc2cccnc2)c1O
IC50 [14]: 16.1 µM (active)
AC50 (INS1): 976 nM (active)
IC50 (Large T antigen): 15 µM (active)
AC50 [15]: 12.4 µM (active)
EC50 (cells [16]): 83 µM (active)
IC50 (Nonstructural protein 1): 1.83 µM (active)
EC50 (cells [17]): 13.6 µM (active)
EC50 [18]: > 100 µM (active)

O=c1c(O)c(-c2ccc(O)cc2)oc2cc(O)ccc12 [RESOKAEMPFEROL]
AC50 (Cytochrome P450 2D6): 20 µM (inconclusive)
AC50 (Cytochrome P450 3A4): 39.8 µM (inconclusive)
